Source: patent publication US11524966B1 (Valo Early Discovery, Inc., priority 2017, dated 2022)

biological target: T1, USP28 (His-tagged USP28-FL-mammalian) (Homo sapiens, UniProt Q96RU2); assay: Ubiquitin-Rhodamine 110 Assay for USP28 Activity, Example A-1(a); assay type: biochemical; settings: Ubiquitin-Rhodamine 110 assay, Example A-1(a); read-out: USP28 A-1(a) IC50 range
T1 construct: Expression of USP28 (1-1077)-TEV-6*His (pTT5 vector); made in house; host or cells: Expi293f cells (pTT5 vector)
T1 sequence (Q96RU2 1-1077): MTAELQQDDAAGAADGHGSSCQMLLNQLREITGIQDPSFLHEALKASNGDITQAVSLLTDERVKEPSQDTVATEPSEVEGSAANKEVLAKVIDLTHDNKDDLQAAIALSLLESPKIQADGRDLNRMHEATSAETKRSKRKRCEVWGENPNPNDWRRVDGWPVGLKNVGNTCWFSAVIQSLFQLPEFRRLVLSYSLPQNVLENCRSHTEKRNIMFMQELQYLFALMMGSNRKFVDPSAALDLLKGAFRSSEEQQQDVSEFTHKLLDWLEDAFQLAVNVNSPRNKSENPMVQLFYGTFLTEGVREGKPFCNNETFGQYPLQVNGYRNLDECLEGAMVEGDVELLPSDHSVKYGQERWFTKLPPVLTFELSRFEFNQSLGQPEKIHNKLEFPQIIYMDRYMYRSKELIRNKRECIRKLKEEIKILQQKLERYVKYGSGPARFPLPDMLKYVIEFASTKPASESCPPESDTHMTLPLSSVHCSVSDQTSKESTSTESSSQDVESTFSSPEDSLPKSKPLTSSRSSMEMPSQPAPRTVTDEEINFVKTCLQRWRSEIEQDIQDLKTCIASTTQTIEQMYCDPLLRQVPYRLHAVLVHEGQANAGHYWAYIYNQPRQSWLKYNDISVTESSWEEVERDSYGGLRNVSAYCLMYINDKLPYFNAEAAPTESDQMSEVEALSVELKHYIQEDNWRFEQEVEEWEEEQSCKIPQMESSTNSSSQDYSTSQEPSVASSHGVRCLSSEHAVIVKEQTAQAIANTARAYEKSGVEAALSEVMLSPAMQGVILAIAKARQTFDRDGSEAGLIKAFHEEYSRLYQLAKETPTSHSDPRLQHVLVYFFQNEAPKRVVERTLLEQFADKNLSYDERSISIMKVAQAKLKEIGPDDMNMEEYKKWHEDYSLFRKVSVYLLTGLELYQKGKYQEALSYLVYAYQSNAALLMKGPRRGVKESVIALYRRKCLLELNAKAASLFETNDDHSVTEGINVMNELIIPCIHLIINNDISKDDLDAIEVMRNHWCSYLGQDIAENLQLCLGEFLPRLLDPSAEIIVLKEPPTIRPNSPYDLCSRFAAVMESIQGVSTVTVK
Procedure, shortened: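 Full-length His-tagged USP28 (1-1077, Expi293F-expressed; […]) was preincubated 30 min with compound (25 μM–1.3 nM, 10-point 3-fold) in 20 mM Tris-HCl pH 8.0, 3 mM BME, 0.03% BGG, 0.01% Triton X-100. Ub-Rh110 (25 nM) was then added for 45 min at room temperature, stopped with citric acid, and read by fluorescence (485/535 nm).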

Q: For `N#Cc1c(N2CC3CCC(C2)N3)cc(F)c2c1OC[C@H](NC(=O)c1cnc3c(c1)[C@H]1C[C@H]1CN3)C2` [Example 229, (6aR,7aS)-N-[(3R)-8-cyano-7-{3,8-diazabicyclo[3.2.1]octan-3-yl}-5-fluoro-3,4-dihydro-2H-1-benzopyran-3-yl]-5H,6H,6aH,7H,7aH-cyclopropa[c]1,8-naphthyridine-2-carboxamide], which IC50 is on record?
A: The IC50 was 200 to 2000 nM.

Q: How did the IC50 turn out when `CO[C@]1(C)CN(c2ccc3c(n2)CC[C@H](NC(=O)c2sc4nc(C)ccc4c2N)C3)C[C@H]1N` [Example 211, 3-amino-N-[(6S)-2-[(3R,4R)-4-amino-3-methoxy-3-methylpyrrolidin-1-yl]-5,6,7,8-tetrahydroquinolin-6-yl]-6-methylthieno[2,3-b]pyridine-2-carboxamide] was run?
A: Its IC50 is 50 to 200 nM.

Q: For `O=C(N[C@H]1CCc2cc(N3CC4CCC(C3)N4)cc(F)c2C1)c1cnc2c(c1)[C@@H]1C[C@@H]1CN2` [Example 191, (6aS,7aR)-N-[(2S)-6-{3,8-diazabicyclo[3.2.1]octan-3-yl}-8-fluoro-1,2,3,4-tetrahydronaphthalen-2-yl]-5H,6H,6aH,7H,7aH-cyclopropa[c]1,8-naphthyridine-2-carboxamide], which IC50 is on record?
A: The IC50 was > 2000 nM.

Q: For `Cc1ccc2c(N)c(C(=O)N[C@H]3COc4cc(N5C[C@@H](N)CC[C@H]5C(F)(F)F)ccc4C3)sc2n1` [Example 245, 3-amino-N-[(3R)-7-[(2S,5S)-5-amino-2-(trifluoromethyl)piperidin-1-yl]-3,4-dihydro-2H-1-benzopyran-3-yl]-6-methylthieno[2,3-b]pyridine-2-carboxamide], which IC50 is on record?
A: Its IC50 is 1 to 50 nM.

Q: How did the IC50 turn out when `Cc1ccc2c(N)c(C(=O)N[C@H]3CCc4nc(N5CC[C@H]6CNC[C@H]65)ccc4C3)sc2n1` [Example 216, N-[(6S)-2-[(3aS,6aS)-octahydropyrrolo[2,3-c]pyrrol-1-yl}-5,6,7,8-tetrahydroquinolin-6-yl]-3-amino-6-methylthieno[2,3-b]pyridine-2-carboxamide] was run?
A: Its IC50 is 1 to 50 nM.

Q: For `Cc1ccc2c(N)c(C(=O)N[C@H]3COc4cc(N5C[C@@H](N)C(C)(C)C5)ccc4C3)sc2n1` [Example 215, 3-amino-N-[(3R)-7-[(4S)-4-amino-3,3-dimethylpyrrolidin-1-yl]-3,4-dihydro-2H-1-benzopyran-3-yl]-6-methylthieno[2,3-b]pyridine-2-carboxamide], which IC50 is on record?
A: Its IC50 is 1 to 50 nM.

Q: For `CO[C@H]1CN(c2ccc3c(c2)CC[C@H](NC(=O)c2cnc4c(c2)[C@@H]2C[C@@H]2CN4)C3)C[C@@H]1N` [Example 189, (6aS,7aR)-N-[(2S)-6-[(3S,4S)-3-amino-4-methoxypyrrolidin-1-yl]-1,2,3,4-tetrahydronaphthalen-2-yl]-5H,6H,6aH,7H,7aH-cyclopropa[c]1,8-naphthyridine-2-carboxamide], which IC50 is on record?
A: The IC50 was 200 to 2000 nM.

Q: `O=C(N[C@@H]1CCc2cc(N3CC4CCC(C3)N4)cc(F)c2C1)c1cnc2c(c1)[C@@H]1C[C@@H]1CN2` [Example 193, (6aS,7aR)-N-[(2R)-6-{3,8-diazabicyclo[3.2.1]octan-3-yl}-8-fluoro-1,2,3,4-tetrahydronaphthalen-2-yl]-5H,6H,6aH,7H,7aH-cyclopropa[c]1,8-naphthyridine-2-carboxamide] was tested. Which IC50 did it give?
A: Its IC50 is 200 to 2000 nM.

Q: `CO[C@H]1CN(c2ccc3c(n2)CC[C@H](NC(=O)c2sc4nc(C)c(F)cc4c2N)C3)C[C@@H]1N` [Example 203, 3-amino-N-[(6S)-2-[(3S,4S)-3-amino-4-methoxypyrrolidin-1-yl]-5,6,7,8-tetrahydroquinolin-6-yl}-5-fluoro-6-methylthieno[2,3-b]pyridine-2-carboxamide] was tested. Which IC50 did it give?
A: Its IC50 is 50 to 200 nM.

Q: Which IC50 does the source give for `COC[C@H]1CN(c2ccc3c(c2)CC[C@H](NC(=O)c2sc4nc(C)ccc4c2N)C3)C[C@H]1N` [Example 253, 3-amino-N-[(2S)-6-[(3S,4S)-3-amino-4-(methoxymethyl)pyrrolidin-1-yl]-1,2,3,4-tetrahydronaphthalen-2-yl]-6-methylthieno[2,3-b]pyridine-2-carboxamide] here?
A: Its IC50 is 1 to 50 nM.

Q: With `Cc1ccc2c(N)c(C(=O)N[C@H]3COc4cc(N5CC[C@H]6CC[C@@H](N)C[C@H]65)ccc4C3)sc2n1` [Example 231, N-[(3R)-7-[(3aR,6R,7aR)-6-amino-octahydro-1H-indol-1-yl]-3,4-dihydro-2H-1-benzopyran-3-yl]-3-amino-6-methylthieno[2,3-b]pyridine-2-carboxamide] as the compound, how does the IC50 read?
A: Its IC50 is 1 to 50 nM.

Q: `Cc1ccc2c(N)c(C(=O)N[C@H]3COc4cc(N5CCO[C@@H]6CNC[C@@H]65)ccc4C3)sc2n1` [Example 185, N-[(3R)-7-[(4aS,7aR)-octahydropyrrolo[3,4-b]morpholin-4-yl]-3,4-dihydro-2H-1-benzopyran-3-yl]-3-amino-6-methylthieno[2,3-b]pyridine-2-carboxamide] was tested. Which IC50 did it give?
A: The IC50 was 1 to 50 nM.

Q: Which IC50 does the source give for `Cc1ccc2c(N)c(C(=O)N[C@H]3COc4cc(N5CC6CCC[C@]6(N)C5)ccc4C3)sc2n1` (stereo partly drawn) [Example 249, N-[(3R)-7-[(3aR)-3a-amino-octahydrocyclopenta[c]pyrrol-2-yl]-3,4-dihydro-2H-1-benzopyran-3-yl]-3-amino-6-methylthieno[2,3-b]pyridine-2-carboxamide] here?
A: Its IC50 is 1 to 50 nM.

Q: Which IC50 does the source give for `Cc1ccc2c(N)c(C(=O)N[C@H]3COc4cc(N5C[C@@H](N)CC[C@@H]5C(F)(F)F)ccc4C3)sc2n1` [Example 246, 3-amino-N-[(3R)-7-[(2R,5S)-5-amino-2-(trifluoromethyl)piperidin-1-yl]-3,4-dihydro-2H-1-benzopyran-3-yl]-6-methylthieno[2,3-b]pyridine-2-carboxamide] here?
A: Its IC50 is 1 to 50 nM.

Q: With `CCO[C@H]1CN(c2ccc3c(n2)CC[C@H](NC(=O)c2sc4nc(C)ccc4c2N)C3)C[C@H]1N` [Example 255, 3-amino-N-[(6S)-2-[(3R,4S)-3-amino-4-ethoxypyrrolidin-1-yl]-5,6,7,8-tetrahydroquinolin-6-yl]-6-methylthieno[2,3-b]pyridine-2-carboxamide] as the compound, how does the IC50 read?
A: Its IC50 is 50 to 200 nM.

Q: How did the IC50 turn out when `Cc1ccc2c(N)c(C(=O)N[C@H]3COc4cc(N5CC[C@H]6CCNC[C@H]65)ccc4C3)sc2n1` [Example 224, N-[(3R)-7-[(3aR,7aS)-octahydro-1H-pyrrolo[2,3-c]pyridin-1-yl]-3,4-dihydro-2H-1-benzopyran-3-yl]-3-amino-6-methylthieno[2,3-b]pyridine-2-carboxamide] was run?
A: Its IC50 is 1 to 50 nM.

Q: How did the IC50 turn out when `Cc1cc(C)c2c(N)c(C(=O)N[C@H]3COc4c(C#N)c(N5CC6CCC(C5)N6)cc(F)c4C3)sc2n1` [Example 230, 3-amino-N-[(3R)-8-cyano-7-{3,8-diazabicyclo[3.2.1]octan-3-yl}-5-fluoro-3,4-dihydro-2H-1-benzopyran-3-yl]-4,6-dimethylthieno[2,3-b]pyridine-2-carboxamide] was run?
A: Its IC50 is 1 to 50 nM.

Q: With `Cc1ccc2c(N)c(C(=O)N[C@@H]3Cc4ccc(N5CCNCC5)nc4[C@H](C)C3)sc2n1` [Example 207, 3-amino-6-methyl-N-[(6S,8R)-8-methyl-2-(piperazin-1-yl)-5,6,7,8-tetrahydroquinolin-6-yl]thieno[2,3-b]pyridine-2-carboxamide] as the compound, how does the IC50 read?
A: The IC50 was 200 to 2000 nM.

Q: How did the IC50 turn out when `O=C(N[C@@H]1CCc2cc(N3CC4CCC(C3)N4)cc(F)c2C1)c1cnc2c(c1)[C@H]1C[C@H]1CN2` [Example 194, (6aR,7aS)-N-[(2R)-6-{3,8-diazabicyclo[3.2.1]octan-3-yl}-8-fluoro-1,2,3,4-tetrahydronaphthalen-2-yl]-5H,6H,6aH,7H,7aH-cyclopropa[c]1,8-naphthyridine-2-carboxamide] was run?
A: Its IC50 is 200 to 2000 nM.

Q: With `CO[C@H]1CN(c2ccc3c(c2)CC[C@H](NC(=O)c2cnc4c(c2)[C@H]2C[C@H]2CN4)C3)C[C@@H]1N` [Example 190, (6aR,7aS)-N-[(2S)-6-[(3S,4S)-3-amino-4-methoxypyrrolidin-1-yl]-1,2,3,4-tetrahydronaphthalen-2-yl]-5H,6H,6aH,7H,7aH-cyclopropa[c]1,8-naphthyridine-2-carboxamide] as the compound, how does the IC50 read?
A: Its IC50 is > 2000 nM.

Q: Which IC50 does the source give for `Cc1cc(C)c2c(N)c(C(=O)N[C@H]3COc4cc(N5CC[C@@H]6CNC[C@@H]65)cc(F)c4C3)sc2n1` (single isomer, unassigned) [Example 223] here?
A: Its IC50 is 1 to 50 nM.

Q: With `Cc1ccc2c(N)c(C(=O)N[C@H]3COc4cc(N5C[C@H](N)C(F)(F)C5)ccc4C3)sc2n1` [Example 256, 3-amino-N-[(3R)-7-[(4S)-4-amino-3,3-difluoropyrrolidin-1-yl]-3,4-dihydro-2H-1-benzopyran-3-yl]-6-methylthieno[2,3-b]pyridine-2-carboxamide] as the compound, how does the IC50 read?
A: The IC50 was 1 to 50 nM.
